In test [1] the target is T1, TBK1 (Mus musculus, UniProt Q9WUN2).
T1 sequence (Q9WUN2 1-729): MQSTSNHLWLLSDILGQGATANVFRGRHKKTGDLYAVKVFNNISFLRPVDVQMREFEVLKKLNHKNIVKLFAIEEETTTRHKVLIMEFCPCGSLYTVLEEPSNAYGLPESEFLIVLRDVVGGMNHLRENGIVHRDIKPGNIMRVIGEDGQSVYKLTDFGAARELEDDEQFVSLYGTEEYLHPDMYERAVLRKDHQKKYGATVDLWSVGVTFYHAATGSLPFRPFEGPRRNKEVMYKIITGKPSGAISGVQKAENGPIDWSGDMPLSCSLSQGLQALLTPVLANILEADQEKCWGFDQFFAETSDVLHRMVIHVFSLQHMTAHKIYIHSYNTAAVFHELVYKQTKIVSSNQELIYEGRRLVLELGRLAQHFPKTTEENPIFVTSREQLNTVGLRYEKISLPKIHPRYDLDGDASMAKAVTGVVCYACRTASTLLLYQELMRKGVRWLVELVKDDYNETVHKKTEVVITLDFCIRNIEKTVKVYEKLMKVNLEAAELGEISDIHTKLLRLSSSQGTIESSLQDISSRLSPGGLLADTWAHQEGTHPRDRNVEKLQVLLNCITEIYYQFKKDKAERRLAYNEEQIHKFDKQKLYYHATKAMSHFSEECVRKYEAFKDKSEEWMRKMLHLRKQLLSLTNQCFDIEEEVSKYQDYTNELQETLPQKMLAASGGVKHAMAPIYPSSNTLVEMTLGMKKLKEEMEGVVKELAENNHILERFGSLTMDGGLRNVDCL
Kind of test: TBK1 activity assay in BAT. The conditions noted are these: for the expression of TBK1 in BAT of db/db mice: Figure 6m, individual values. Also on record: The adipose tissue was ultrasound-crushed in PBS buffer solution (1:9 w/v) to prepare the tissue homogenate; from tissue; host or cells: epididymal white adipose tissue (eWAT) and brown adipose tissue (BAT) of C57BLKS WT and db/db mice. It is filed as in vivo, mice. The procedure: The adipose tissue was ultrasound-crushed in PBS buffer solution (1:9 w/v) to prepare the tissue homogenate. The tissue homogenate was centrifuged at 5000 × g for 10 min, and the supernatant was taken for detection. Briefly, samples or standards were added to the microplates pre-coated with IKKε antibody or TBK1 antibody. Then horseradish peroxidase (HRP) labeled antibody was added and incubated at 37 °C for 60 min. After thorough washing, the 3,3′,5,5′-tetramethylbenzidine (TMB) substrate was used for color development, and the absorbance (OD value) was determined at 450 nm.

The target of test [2] is T1, TBK1. Kind of test: TBK1-knockdown 3T3-L1 adipocytes (siRNA; western blotting, immunofluorescence). It is filed as cell-based, Murine. Details: host or cells: differentiated 3T3-L1 adipocytes (Lipofectamine 2000); TBK1 (western blotting, Figure 9b) / p-AMPK (western blotting, Figure 9c) / UCP1 (western blotting, Figure 9d): unit not given here. The following applies: for MitoTracker (immunofluorescence, Figure 9f) / UCP1 (immunofluorescence, Figure 9g): replicates 1-12. As for the experimental part: Small interference RNA transfection (siRNA) was performed using 4 μM TBK1 siRNA (siTBK1) or 4 μM […]ε) or corresponding NC siRNA (siNC). The 3T3-L1 adipocytes were washed with PBS for 3 times, fixed with 4% paraformaldehyde solution for 30 min, and then washed again for 3 times. […] The cells were then incubated overnight at 4 °C with the appropriate primary antibodies (1:100 dilution). The next day, the 3T3-L1 adipocytes were washed and incubated at room temperature with goat anti-rabbit secondary antibody or goat anti-mouse secondary antibody (1:1000 dilution) for 2 h and washed with PBS for 3 times. The nuclei were stained with DAPI. […] Fluorescence images were taken using a laser confocal microscope (SP8, Leica, Germany). At least four images per section were acquired for quantification, and the mean intensity were evaluated using ImageJ. The adipose tissue or 3T3-L1 adipocytes were homogenized by ultrasound in an ice-cold RIPA lysis buffer containing 1% PMSF and centrifuged at 12,000 × g at 4°C for 15 min to collect the supernatant. The BCA protein assay kit (Beyotime, Shanghai, China) was used to detect the total protein concentration. Proteins (20-30 μg) of the sample were separated by 10% SDS-PAGE gel and transferred onto polyvinylidene difluoride (PVDF) membranes. Then the PVDF membranes were blocked in 5% skim milk powder in TBS containing 1% Tween-20 (TBST) for 2 h at room temperature and washed with TBST for 3 times. […] After washing, the membranes were incubated with horseradish peroxidase-conjugated secondary antibodies (in 5% skim milk powder) for 1 h at room temperature. Finally, the membranes were treated with enhanced chemiluminescence agents (Tanon, Shanghai, China) and the signals were monitored using the Tanon 5200 multi chemiluminescent imaging system (Tanon, Shanghai, China).
(In general: Immunoblotting shows a protein as a band on a membrane.)

Where “and” joins values, the source holds several entries; their conditions need not be identical. Equal entries are not always repeated.

`CC(C)Cc1ccc(C(C)C(=O)[O-])cc1.COc1ccc2cc3[n+](cc2c1OC)CCc1cc2c(cc1-3)OCO2.O.O.O.O` [BJ, berberine-ibuprofen]: the “the expression of TBK1 in BAT of db/db mice” value at TBK1 [1] (db/db+BJ 75mg/kg) is 0.366 U/g and 0.397 U/g and 0.402 U/g and 0.336 U/g and 0.384 U/g and 0.344 U/g. Moreover, the “the expression of TBK1 in BAT of db/db mice” value on TBK1 [1] (db/db+BJ 150mg/kg) was 0.338 U/g and 0.377 U/g and 0.358 U/g and 0.428 U/g and 0.335 U/g and 0.369 U/g. Also, the “TBK1 activity and expression levels in BAT” value at TBK1 [1] (db/db mice, both doses of BJ) is on record as “had no effect”. Moreover, at TBK1 [2] (10μM BJ), the “TBK1 (western blotting, Figure 9b)” value is 0.1548 and 0.1822 and 0.1679; the “UCP1 (western blotting, Figure 9d)” value is 0.6444 and 0.6902 and 0.5582; the “p-AMPK (western blotting, Figure 9c)” value is 0.3674 and 0.4043 and 0.3553; the “MitoTracker (immunofluorescence, Figure 9f)” value is 22.957 and 24.343 and 25.025 and 18.793 and 24.708 and 21.147 and 28.941 and 23.595 and 21.858 and 24.262 and 23.917 and 27.936. Moreover, on TBK1 [2] (10μM BJ), the “UCP1 (immunofluorescence, Figure 9g)” value is 28.366 and 25.764 and 25.784 and 25.906 and 27.454 and 28.774 and 34.011 and 26.939 and 25.523 and 31.625 and 28.718 and 27.261. Moreover, the “Expression of p-AMPKα and UCP1” value at TBK1 [2] (3T3-L1 adipocytes, BJ alone, 24 h) is “significantly increased the expression of p-AMPKα and UCP1”. The “Expression levels of p-AMPKα and UCP1” value at TBK1 [2] (TBK1-knockdown 3T3-L1 adipocytes treated with BJ, vs TBK1-knockdown) is listed as “not significantly changed”. In addition, at TBK1 [2] (siTBK1+10μM BJ), the “TBK1 (western blotting, Figure 9b)” value is 0.1211 and 0.0965 and 0.1123; the “UCP1 (western blotting, Figure 9d)” value is 0.7411 and 0.669 and 0.5981; the “p-AMPK (western blotting, Figure 9c)” value was 0.4095 and 0.4234 and 0.498; the “MitoTracker (immunofluorescence, Figure 9f)” value was 25.218 and 30.785 and 30.877 and 30.71 and 22.848 and 22.479 and 31.768 and 31.566 and 27.335 and 20.91 and 29.763 and 33.52. Also, the “UCP1 (immunofluorescence, Figure 9g)” value at TBK1 [2] (siTBK1+10μM BJ) was 30.066 and 28.142 and 35.211 and 34.925 and 27.446 and 30.425 and 28.118 and 35.655 and 39.617 and 27.871 and 25.612 and 40.285.

The record behind these values is paper PMC9374667 (Communications Biology, 2022).
